Reference: a melting point compilation (Tetko et al.; mined from patent text by program, amines drawn as free bases though some values may be those of a salt)

Compound | melting point [°C]
CCOC(=O)c1cnn2c1c(N1CCN(C)CC1)nc1ccccc12 | 234 to 236
Nc1cncc(O)c1CCCOc1cccnc1Oc1cccc(Cl)c1 | 75 to 90
CCOc1cc2cc3c(Nc4cc(OC)c(Cl)cc4C)c(C#N)cnc3cc2cc1OCCN(CC(N)=O)CC(N)=O | 168 to 170
COC(=O)c1nn(Cc2ccccc2)c2c1CCc1cc(OCc3cncnc3)ccc1-2 | 202 to 203
CCOC(=O)c1c(CN2CCC(C(=O)OCC)CC2)nc2sc3c(c2c1-c1ccc(OC)c(OC)c1)CCN(C(=O)c1ccc(Cl)cc1)C3 | 99 to 101
O=c1c2ccc(Cl)cc2[nH]c2c(=O)n(-c3ccc(Cl)cc3)nc(O)c12 | > 400
COC1=C(C)C(=O)OC1O (stereo not given) | 79
CN1[C@H]2CC[C@@H]1[C@@H](CO)[C@@H](c1ccc(F)cc1)C2 | 79 to 80
CS(=O)(=O)Nc1ccc2c(c1)C(=NO)CC1(CCN(CCc3ccccc3)CC1)O2 | 95 to 99
CCCOc1cc(C)c2cc(Cn3ccnc3)ccc2n1 | 138
CC(O)c1cccc(-c2ccc(CC34CCCN3C(=O)N(c3cc(Cl)cc(Cl)c3)C4=O)cc2)c1 (stereo not given) | 66.5
CCCCCCCCCCCCCCCCCCNC(=O)NCCCCCCN | 123 to 168
O=C(O)c1ccc(-c2ccc3cc(OCc4ccccc4)c(C45CC6CC(CC(C6)C4)C5)cc3c2)s1 | 170 to 171
CC(C)(C)c1cc(C(=O)Oc2ccc(Cl)c(N)c2)cc(C(C)(C)C)c1O | 64 to 66
Cc1nc2c(N)nc3ccccc3c2n1CC(C)(C)C(N)=O | 284 to 287
N#Cc1ccc2cccc(N3CCN(CCCCOc4ccc5c(n4)NC(=O)NCC5)CC3)c2c1 | 168 to 170
CCc1nccn1-c1ccc(NC(=O)NC)cc1 | 228 to 232
CNC1=NN(c2ccc(Cl)c(Cl)c2)CC1 | 68 to 70
Cc1c([N+](=O)[O-])c(=O)n(-c2cc(C(=O)OC(C)C)c(Cl)cc2F)c(=O)n1C | 129 to 131
CN(CCCN1C(=O)c2cccc3cc4ccccc4c(c23)C1=O)CCCN1C(=O)c2cccc3cc4ccccc4c(c23)C1=O | 194

Compound | melting point [°C]
Cc1ccc([N+](=O)[O-])c(C#N)c1 | 90 to 91
O=C1c2cccc(Cl)c2C(=O)N1CCN1CCC(c2noc3cc(F)ccc23)CC1 | 170 to 171
CCOC(=O)C(=CNc1ccnn1CC)C(=O)OCC | 50 to 53
Nn1nc(-c2ccc(Cl)cc2)cc1OCCN1CCOCC1 | 120 to 121
O=C(Nc1ccc(Oc2cncc(Cl)c2)nc1)c1ccccc1C(c1ccc(O)cc1)c1ccc(O)cc1 | 122 to 125
COCCNc1nc(-n2ccnc2)nc2ccc(C(=O)OC)cc12 | 252 to 253
O=C1N(Cc2ncccc2C(F)(F)F)c2ccccc2C12COc1ccc3c(c12)OCCO3 (stereo not given) | 245 to 247
COc1cc(C)ccc1-c1cc2ccccc2[nH]1 | 125
CCN1C[C@@H](C(=O)OC(C)(C)C)NC1=O | 86 to 87
N=C(N)Nc1nc(C(=O)NCC(=O)NC(CC(=O)O)c2cccnc2)cs1 (racemic) | 186
N#Cc1cc(Cl)c(Cl)c(-c2ccc(Cl)cc2)n1 | 142 to 145
O=C(NC1CCN(CCC2CCOc3ccccc32)CC1)c1ccncc1 (stereo not given) | 122 to 123
c1cc2c(N3CCNCC3)csc2cn1 | 126 to 128
CC#CC(C)(C)NC(=O)C(CC)Oc1cncc(Br)c1 (single isomer, unassigned; (-)) | 95 to 97
O=C(NS(=O)(=O)NCCCN1CCC(Oc2ccc(Cl)c(Cl)c2)CC1)c1ccccc1 | 93 to 106
CC(C)C[C@H](NC(=O)OCC1c2ccccc2-c2ccccc21)C(=O)N[C@H]1CCOC1OCc1ccc2ccccc2c1 (stereo not given in full) | 79 to 80
COC(=O)C(C)c1cccc2c(=O)c3ccccc3ccc12 (stereo not given) | 37 to 39
Nc1ccc(Cl)cc1C(=O)Nc1ccc(S(=O)(=O)N2CCOCC2)cc1 | 229 to 231
CN1C(=O)C(Br)=C(c2cn(C)c3ccccc23)C1=O | 155 to 158
O=C(CBr)c1ccc(O)cc1 | 115 to 118

Compound | melting point [°C]
OC1(c2ccc(F)cc2)CCN(Cc2ccnc(-c3ccccc3)c2)CC1 | 149 to 151
COc1ccc(-c2c3c(nn2-c2ccccc2)-c2cccc(N)c2C3=O)cc1 | 273
O=S1(=O)N=Cc2cccc(Cl)c21 | 162 to 164
Nc1ncc(-c2cc(C(F)(F)F)cc(C(F)(F)F)c2)nc1C(=O)Nc1cccnc1 | 220 to 222
CC(=O)NC(NNc1ccccc1)C(=O)NCc1ccccc1 (stereo not given) | 132 to 134
CN(C)C1CCN(c2nc(N3CCOCC3)c3ncnc(N(CCCN)Cc4ccccc4)c3n2)CC1 | 102 to 105
O=C=Nc1cc(OCC(F)(F)F)ccc1OCC(F)(F)F | 50 to 52
CC(C)(C)N(O)CC(O)c1cc(F)c(N)c(Br)c1 (stereo not given) | 122 to 125
CCN(CC)C(=O)c1c(CO)ccc(F)c1[Si](C)(C)C | 107 to 108
O=C(Nc1ccccc1)N1CCc2[nH]c3c(cnc4cc(Cl)ccc43)c2C1 | > 260
CCCC[C@]1(CC)CSc2cc(OC)c(OC)cc2[C@@H](c2ccccc2)N1 | 64 to 66
CCOC(=O)C=Cc1cc([N+](=O)[O-])ccc1C | 44
O=C(CCCCl)Nc1cccc(-c2ccnc3c(C(=O)c4cccs4)cnn23)c1 | 97 to 100
O=C(O)COc1cc2c(c(Cl)c1Cl)C(=O)CCC2 | 250 to 252
Nc1nc2c(s1)CCN(CCC=Cc1ccccc1)CC2 | 157 to 158
NS(=O)(=O)c1ccc(OCCn2ccnc2)cc1 | 148
Cc1ccc(-n2nc(C)c(C(=O)O)n2)cc1 | 230 to 232
CC(C)c1cc(S(=O)(=O)c2c(Br)cc(CCC(=O)O)cc2Br)ccc1O | 186 to 188
COc1c(N2CCC(n3cc(C)nn3)C2)c(F)cc2c(=O)c(C(=O)O)cn(C3CC3)c12 (stereo not given) | 174 to 176

The remaining lines, values ahead:

melting point [°C] | Compound
100 | Cc1cccc(C2CCCCS2=O)n1 (stereo not given)
162 to 163 | Cc1c(NC(=O)CC(C)(C)C)cc2c(c1C)OC(C)(C)C2c1ccc(CO)cc1 (stereo not given)
198 to 200 | CS(=O)(=O)c1ccc(-c2nn3c(c2-c2ccc(F)cc2)OCCC3)cc1
155 to 157 | Clc1ccc(Nc2cncc(-n3cccn3)n2)cc1
213 to 216 | O=C(O)Cc1ccc(-c2nc3ccccc3o2)cc1F
135 to 137 | CC(C)Oc1ccc(CCN2CCC3(CC2)CNC(=O)CO3)cc1
245 | O=C1OC(=O)c2c1ccc1ccc3ccccc3c21
139 to 140 | CN(C)C(=O)Cc1csc(NC(=O)C(Cc2ccccc2)NC(=O)OC(C)(C)C)n1 (stereo not given)
155 to 158 | CC(C(=O)n1c(=O)oc2ccccc21)C(O)c1ccccc1 (stereo not given)
91 to 92 | CN(CCN1CCOCC1)c1noc2cc(O)ccc12
235 to 237 | O=C1NCc2c1cccc2[N+](=O)[O-]
176 | CC(C)C1=Cc2cc(OCC(=O)O)c(Cl)c(Cl)c2C1=O
158 to 160 | C[C@@H](n1ncnn1)[C@](O)(Cn1ccnc1)c1ccc(F)cc1F
40 | COc1ccccc1N=C(C)CC(=O)C(F)(F)F
149 | CC1(C)OC(=O)N[C@@H]1c1ccccc1
129 to 131 | Cc1c(CC(=O)OCCO)cc(-c2ccc(S(C)(=O)=O)cc2)n1-c1ccc(F)cc1
244 to 245 | NC(=O)Cc1cccc2c(=O)cc(C3=CCCCC3)oc12
75 to 76 | CCOC(=O)/C=C/c1cn(-c2ccc(C(F)(F)F)cn2)nc1C(C)CC (stereo not given)
48 to 51 | Cc1c(-c2ccc(OCc3ccccc3)cc2)n(C(=O)c2ccc(OCCN3CCCCC3)cc2)c2ccc(OCc3ccccc3)cc12
138 to 140 | N#Cc1ccccc1-c1ccc(C(F)(F)F)c(Cl)c1
184 to 192 | CC(C)(CCO)c1ccc2ncc(C(=O)NCc3ccc(Cl)cc3)c(O)c2c1

melting point [°C] | Compound
276 to 278 | CC(=O)Nc1cccc(C#CC=Cc2cccc(NC(C)=O)c2)c1
51 to 61 | CCc1cn(C2CC(O)C(CNCC(C)Oc3ccc(Cl)cc3Cl)O2)c(=O)[nH]c1=O (mixture of isomers)
132 to 135 | COc1ccc(NS(C)(=O)=O)cc1CN1CCC(=O)C(C(c2ccccc2)c2ccccc2)C1 (stereo not given)
295 | O=c1[nH]c2cc(Cl)ccc2n(CCO)c1=O
99 to 101 | CCCOc1cc(OCCC)c2c(C)c(CCCl)c(=O)oc2c1
146 to 147 | CC(C)(C)c1cc(C(C)(C)C)n(Cc2ccc(CNc3ccc(CCC(=O)O)c(F)c3)cc2)n1
66.3 | CS(=O)(=O)Nc1cccc(C=C2c3ccccc3CCc3ccccc32)c1
166 to 171 | CC(=O)N(C)c1c(C(=O)c2cccc(C)c2)[nH]c2cc(Cl)ccc12
205 to 207 | Cc1ccc(S(=O)(=O)N2CCC(NC(=O)Nc3ccc(OC(F)(F)F)cc3)CC2)cc1
> 280 | CC(=NNc1nnc(-n2c(=S)[nH]c3ccccc32)s1)c1ccccn1
41 to 42.5 | C#CCCCCNC(=O)C(F)(F)F
91 to 93 | Cc1nc(O)sc1CC(C)Cl (stereo not given)
243 to 245 | Cc1c(CCO)c(=O)oc2cc(O)cc(O)c12
182 to 184 | CN1CCN(c2nccc(Oc3ccc(NC(=O)c4cc(F)cc(N5CCCCC5)c4)c4ccccc34)n2)CC1
194 to 200 | CC(C(=O)O)(c1ccccc1)N1CCC(c2noc3cc(F)ccc23)CC1 (stereo not given)
73 to 74 | Cc1cc(N)c([N+](=O)[O-])cc1OC(F)F
181 to 182 | CC(C)(C)c1ccc(C(=O)Nc2cc(OCCCO/N=C/c3cn(Cc4ccccc4)c4ccccc34)ccc2C(=O)O)cc1
149 to 153 | CC(=O)NNc1nc(C(F)(F)F)nc(-c2ccc(F)cc2)c1-c1ccccc1
118 to 120 | COc1ccc(OC)c(S(=O)(=O)Nc2onc(C)c2Br)c1
85 to 86 | COC(=O)c1ccc(O)c(C(=O)CC(=O)c2cc(C)ccc2OC(C)C)c1
